By IC50 is commonly meant the midpoint of a concentration-inhibition curve. As usually defined, the pIC50 is −log10 of the IC50, conventionally taken in molar units.

In PubChem BioAssay AID686963 (Sanford-Burnham Center for Chemical Genomics, 2013) one finds IC50 data, which are given here for 17 compounds.

Molecules are shown by their SMILES. pIC50: −log10 of the molar value. Calls of active or inactive are those of the source.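 The calls were made as follows: active = compounds blocking the small tyrosine phosphatase LMPTP with an IC50 of 20 micromolar or lower; inactive = the rest.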 Bounds are passed on as bounds.

The target of the experiment is Low molecular weight phosphotyrosine protein phosphatase (Homo sapiens) (UniProt P24666). In words: inhibition of human LMPTP, pNPP readout – biochemical, absorbance, orthogonal assay, SAR follow-up (AID 686963). To be noted: recombinant LMPTP-A, 50 min.
Sequence of Low molecular weight phosphotyrosine protein phosphatase (Homo sapiens) (P24666 whole entry, looked up): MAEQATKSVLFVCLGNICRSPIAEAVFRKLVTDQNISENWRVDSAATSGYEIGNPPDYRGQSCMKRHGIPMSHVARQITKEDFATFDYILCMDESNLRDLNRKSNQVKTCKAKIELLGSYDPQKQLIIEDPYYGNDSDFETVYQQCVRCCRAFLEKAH

For `O=C(OCCNc1nc(-c2ccccc2)nc2ccccc12)c1cccnc1`, the IC50 entry was “inactive”.
The same measure, in the same setting: next, `Cc1cccc(-c2nc(NCCCN3CCOCC3)c3ccccc3n2)c1`: “inactive”.
On the same count and under the same terms, next, `Cc1ccc(-c2nc(NCCN3CCOCC3)c3ccccc3n2)cc1`: “inactive”; `Fc1ccccc1-c1nc(NCCCN2CCOCC2)c2ccccc2n1`: “inactive”; `Cc1ccc(-c2nc(NCc3cccnc3)c3ccccc3n2)cc1`: “inactive”.
Consider `Nc1nc(N)c(Cc2ccc(Cl)cc2Cl)c(N)n1`, for which the pIC50 was 4.87.
Still for that read-out and setting: next, `c1ccc(-c2cc(NCCN3CCCCC3)c3ccccc3n2)cc1`: 5.30.
Take `CCc1nc(N)nc(N)c1-c1ccc(Cl)cc1`: the IC50 entry is “inactive”.
Consider `O=C(OCCNc1nc(-c2ccccc2)nc2ccccc12)c1ccncc1`, for which the IC50 result is “inactive”.
For the compound `COc1ccccc1CNc1ncnc2ccsc12`, the IC50 is > 80 µM (inactive).
For the compound `c1ccc(-c2nc(NCCCn3ccnc3)c3ccccc3n2)cc1`, the IC50 entry was “inactive”.
As for `Cc1c(CCC(=O)O)c(=O)oc2c(C)c(OCc3ccccc3Cl)ccc12`, the negative logarithm of the IC50 (pIC50) was 4.76.
`CC(C)OCCCNc1nc(-c2ccccc2)nc2ccccc12`: the IC50 entry was “inactive”.
On the same count and under the same terms, the same measure for `Fc1ccccc1-c1nc(NC2CCCC2)c2ccccc2n1`: “inactive”.
On to `Clc1cccc(Cl)c1Cn1cnc(=NCc2ccco2)c2[nH]cnc21`, for which the pIC50 was 4.94.
Consider `c1ccc(-c2cc(N3CCCCC3)c3ccccc3n2)cc1`, for which the IC50 entry was “inactive”.
`c1ccc(-c2nc(NCc3cccnc3)c3ccccc3n2)cc1`: the IC50 result was “inactive”.
